Reference: ChEMBL document CHEMBL1201862, “PubChem BioAssay data set” (2004)
Active and inactive are the calls of the source.

Assays:
[1] = system: Vero; experiment: cytotoxicity of synthesized analogs in Vero 76, SAR follow-up, cytotoxicity control for West Nile virus antiviral project, Vero 76 cells (AID 2414); type: functional; conditions: Chlorocebus sabaeus
[2] = A Cell Based Assay for the Identification of Probe candidate Compounds with Anti- Venezuelan Equine Encephalitis virus. [Related pubchem assays: 2409, 2419, 1621, 2238, 2405, 2024, 2065, 2402, 2414, 1635, 1650, 2244 ]; type: functional
[3] = system: Vero; experiment: cytotoxicity of synthesized analogs in Vero cells, SAR follow-up, cytotoxicity control for West Nile virus antiviral project, cell-based, set II (AID 2402); type: functional; conditions: Chlorocebus sabaeus
[4] = target: T1, Microphthalmia-associated transcription factor (Homo sapiens, UniProt O75030); experiment: TRPM1 promoter luciferase signal decrease, dose response, MITF inhibitor project, cell-based, SK-MEL-5, cherry-picked, set 3 (AID 493073); type: functional
T1 sequence (O75030 whole entry): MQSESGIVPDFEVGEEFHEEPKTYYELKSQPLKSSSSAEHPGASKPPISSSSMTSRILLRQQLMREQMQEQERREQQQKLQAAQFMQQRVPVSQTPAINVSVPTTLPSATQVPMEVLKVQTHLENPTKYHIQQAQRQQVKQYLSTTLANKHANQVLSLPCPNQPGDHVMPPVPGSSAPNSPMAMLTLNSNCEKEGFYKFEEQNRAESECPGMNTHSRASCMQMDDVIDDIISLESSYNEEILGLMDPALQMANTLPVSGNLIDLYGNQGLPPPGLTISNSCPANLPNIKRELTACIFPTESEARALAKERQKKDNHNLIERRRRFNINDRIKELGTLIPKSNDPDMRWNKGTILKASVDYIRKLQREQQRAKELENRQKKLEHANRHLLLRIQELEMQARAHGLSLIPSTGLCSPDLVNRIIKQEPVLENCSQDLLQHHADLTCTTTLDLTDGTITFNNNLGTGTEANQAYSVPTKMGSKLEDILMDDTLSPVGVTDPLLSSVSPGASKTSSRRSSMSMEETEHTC

[5] = Luminescence-based counterscreen assay for KLF5 inhibitors: dose response cell-based high throughput screening assay to identify cytotoxic compounds using the IEC-6 intestinal epithelial cell line. [Related pubchem assays: 1700 (Primary screen.), 1834 (Confirmation screen.), 1858 (Summary AID.), 1905 (Counterscreen.)]; type: functional
[6] = inhibitors of clade B AD8 Env fusion, dose response, cell-based, cherry-pick (AID 652062); type: functional;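 note: luciferase signal from cell-cell fusion driven by HIV-1 clade B AD8 Env; potency is for inhibitors of fusion seen as a drop in luminescence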
[7] = system: Vero; experiment: cells; type: functional; conditions: Chlorocebus sabaeus
[8] = target: T2, Long-chain-fatty-acid--AMP ligase FadD28 (Mycobacterium tuberculosis, UniProt P9WQ59); experiment: Fluorescence polarization aasay to screen for inhibitors that compete for the binding of FadD28 to a bisubstrate Measured in Biochemical System Using Plate Reader - 2147-01_Inhibitor_Dose_CherryPick_Activity.; type: functional, Mycobacterium tuberculosis H37Rv
T2 sequence (P9WQ59 whole entry): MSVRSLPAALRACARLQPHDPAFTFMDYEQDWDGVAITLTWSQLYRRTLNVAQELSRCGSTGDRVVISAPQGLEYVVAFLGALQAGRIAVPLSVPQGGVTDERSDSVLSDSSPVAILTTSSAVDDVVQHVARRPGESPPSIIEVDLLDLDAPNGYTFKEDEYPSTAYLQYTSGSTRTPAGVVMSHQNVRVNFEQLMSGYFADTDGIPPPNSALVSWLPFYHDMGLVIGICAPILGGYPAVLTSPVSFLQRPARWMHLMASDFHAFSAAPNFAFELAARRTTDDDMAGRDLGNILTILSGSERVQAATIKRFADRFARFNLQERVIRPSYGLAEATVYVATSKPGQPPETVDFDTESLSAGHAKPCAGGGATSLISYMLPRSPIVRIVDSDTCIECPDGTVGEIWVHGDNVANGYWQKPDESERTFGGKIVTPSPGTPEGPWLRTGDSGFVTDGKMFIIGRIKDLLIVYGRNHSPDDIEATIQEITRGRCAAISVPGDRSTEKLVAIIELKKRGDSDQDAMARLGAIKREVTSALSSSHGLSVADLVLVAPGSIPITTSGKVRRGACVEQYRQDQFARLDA

[9] = HEp-2 cell cytotoxicity, dose response, cytotoxicity control for RSV inhibitor project, HTS (AID 2410); type: functional; conditions: human respiratory syncytial virus
[10] = inhibitors of HIV Env-driven cell fusion, dose response, cherry-pick (AID 652057); type: functional, cell-based
[11] = CEM21 lymphoblast cell cytotoxicity, dose response, cytotoxicity control for viral fusion inhibitor project, CellTiter-Glo luminescence, cherry-picked (AID 652042); type: functional, cell-based;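 note: potency for signal decrease meaning cytotoxicity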
[12] = ZM109 Env clade C HIV-1 fusion inhibitors, dose response, HeLa effector, CEM target cells, luciferase, cherry-pick (AID 652058); type: functional, cell-based
[13] = target: Glucose-6-phosphate 1-dehydrogenase (Homo sapiens, UniProt P11413); experiment: human G6PD enzyme inhibitors, dose response, selectivity assay for P. falciparum G6PD inhibitor project, biochemical, fluorescence (AID 504792); type: functional
Glucose-6-phosphate 1-dehydrogenase, sequence (P11413 whole entry, the tested form may be a part): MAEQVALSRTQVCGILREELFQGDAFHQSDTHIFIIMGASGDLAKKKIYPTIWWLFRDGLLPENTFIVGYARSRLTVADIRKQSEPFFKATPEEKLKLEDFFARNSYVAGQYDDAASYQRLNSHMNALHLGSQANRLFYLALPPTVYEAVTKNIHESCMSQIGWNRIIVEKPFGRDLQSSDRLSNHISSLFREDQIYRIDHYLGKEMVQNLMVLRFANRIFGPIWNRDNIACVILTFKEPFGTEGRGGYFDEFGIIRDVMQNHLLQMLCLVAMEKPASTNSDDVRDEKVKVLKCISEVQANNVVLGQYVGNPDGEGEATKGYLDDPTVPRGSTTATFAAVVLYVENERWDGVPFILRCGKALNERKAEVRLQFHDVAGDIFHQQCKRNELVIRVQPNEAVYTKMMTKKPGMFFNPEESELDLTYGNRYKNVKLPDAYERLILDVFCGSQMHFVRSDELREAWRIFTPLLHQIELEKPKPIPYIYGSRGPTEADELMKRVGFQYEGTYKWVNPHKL

[14] = off-target signal loss in HeLa-CEM21 co-culture – HeLa F-luc CTL cells, cherry-picked, counter-screen for HIV-1 Env fusion inhibitor project, dose response (AID 652040); type: functional, cell-based;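 note: potency for signal decrease marking cytotoxic or nonspecific inhibition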

| SMILES | CC50 [1] | IC50 [2] | CC50 [3] | AC50 [4] | IC50 [5] | AC50 [6] | CC50 [7] | AC50 [8] | CC50 [9] | AC50 [10] | AC50 [11] | AC50 [12] | IC50 [13] | AC50 [14] |
| --- | --- | --- | --- | --- | --- | --- | --- | --- | --- | --- | --- | --- | --- | --- |
| Cc1cccc2c(=O)n(-c3ccccc3)c(SCC(=O)Nc3ccc4c(c3)CCC4)nc12 | > 133 µM (active) | > 133 µM (active) | > 200 µM (active) |  |  |  |  |  |  |  |  |  |  |  |
| CC(C)(C)c1ccc(C(=O)Nc2sc3c(c2C(=O)O)CCC3)cc1 |  |  |  | 2.09 µM (active) | > 39.8 µM (not active) | 0.786 µM (active) | > 25 µM (active) | > 100 µM (inactive) | 6.97 µM (active) | 2.21 µM (active) | 66.1 µM (active) | 1.36 µM (active) | > 80 µM (inactive) | 4.43 µM (active) |
